What was measured:
[1] = system: BT-549; assay: Growth inhibition of human BT549 cells assessed as cell growth at 10 uM after 48 hrs by sulforhodamine B assay; format: functional; conditions: BT-549, 48 h, read-out: Activity
[2] = system: PC-3; assay: Growth inhibition of human PC3 cells assessed as cell growth at 10 uM after 48 hrs by sulforhodamine B assay; format: functional; conditions: PC-3, 48 h, read-out: Activity
[3] = system: CAKI-1; assay: Growth inhibition of human CAKI-1 cells assessed as cell growth at 10 uM after 48 hrs by sulforhodamine B assay; format: functional; conditions: CAKI-1, 48 h, read-out: Activity
[4] = Growth inhibition of human HCC2998 cells after 48 hrs by sulforhodamine B assay; format: functional; conditions: HCC 2998, 48 h
[5] = system: NCI-H23; assay: Growth inhibition of human NCI-H23 cells after 48 hrs by sulforhodamine B assay; format: functional; conditions: NCI-H23, 48 h
[6] = system: NCI-H226; assay: Growth inhibition of human NCI-H226 cells after 48 hrs by sulforhodamine B assay; format: functional; conditions: NCI-H226, 48 h
[7] = system: HOP-62; assay: Growth inhibition of human HOP62 cells after 48 hrs by sulforhodamine B assay; format: functional; conditions: HOP-62, 48 h
[8] = system: MOLT-4; assay: Growth inhibition of human MOLT4 cells after 48 hrs by sulforhodamine B assay; format: functional; conditions: MOLT-4, 48 h
[9] = system: K562; assay: Growth inhibition of human K562 cells after 48 hrs by sulforhodamine B assay; format: functional; conditions: K562, 48 h
[10] = system: SK-OV-3; assay: Growth inhibition of human SKOV3 cells assessed as cell growth at 10 uM after 48 hrs by sulforhodamine B assay; format: functional; conditions: SK-OV-3, 48 h, read-out: Activity
[11] = Growth inhibition of human NCI-ADR-RES cells assessed as cell growth at 10 uM after 48 hrs by sulforhodamine B assay; format: functional; conditions: read-out: Activity
[12] = system: MDA-MB-435; assay: Growth inhibition of human MDA-MB-435 cells assessed as cell growth at 10 uM after 48 hrs by sulforhodamine B assay; format: functional; conditions: MDA-MB-435, 48 h, read-out: Activity
[13] = system: LOX IMVI; assay: Growth inhibition of human LOXIMVI cells assessed as cell growth at 10 uM after 48 hrs by sulforhodamine B assay; format: functional; conditions: read-out: Activity
[14] = system: U-251; assay: Growth inhibition of human U251 cells assessed as cell growth at 10 uM after 48 hrs by sulforhodamine B assay; format: functional; conditions: U-251, 48 h, read-out: Activity
[15] = system: SF-268; assay: Growth inhibition of human SF268 cells assessed as cell growth at 10 uM after 48 hrs by sulforhodamine B assay; format: functional; conditions: SF-268, 48 h, read-out: Activity
[16] = system: COLO 205; assay: Growth inhibition of human COLO205 cells assessed as cell growth at 10 uM after 48 hrs by sulforhodamine B assay; format: functional; conditions: COLO 205, 48 h, read-out: Activity
[17] = system: NCI-H522; assay: Growth inhibition of human NCI-H522 cells assessed as cell growth at 10 uM after 48 hrs by sulforhodamine B assay; format: functional; conditions: NCI-H522, 48 h, read-out: Activity
[18] = system: NCI-H23; assay: Growth inhibition of human NCI-H23 cells assessed as cell growth at 10 uM after 48 hrs by sulforhodamine B assay; format: functional; conditions: NCI-H23, 48 h, read-out: Activity
[19] = system: NCI-H322M; assay: Growth inhibition of human NCI-H322M cells assessed as cell growth at 10 uM after 48 hrs by sulforhodamine B assay; format: functional; conditions: read-out: Activity
[20] = system: HOP-92; assay: Growth inhibition of human HOP92 cells assessed as cell growth at 10 uM after 48 hrs by sulforhodamine B assay; format: functional; conditions: HOP-92, 48 h, read-out: Activity
[21] = system: MCF7; assay: Growth inhibition of human MCF7 cells after 48 hrs by sulforhodamine B assay; format: functional; conditions: MCF7, 48 h
[22] = system: MDA-MB-231; assay: Growth inhibition of human MDA-MB-231 cells after 48 hrs by sulforhodamine B assay; format: functional; conditions: MDA-MB-231, 48 h
[23] = system: UO-31; assay: Growth inhibition of human UO31 cells after 48 hrs by sulforhodamine B assay; format: functional; conditions: UO-31, 48 h
[24] = system: OVCAR-5; assay: Growth inhibition of human OVCAR5 cells after 48 hrs by sulforhodamine B assay; format: functional; conditions: OVCAR-5, 48 h
[25] = system: IGROV-1; assay: Growth inhibition of human IGROV1 cells after 48 hrs by sulforhodamine B assay; format: functional; conditions: IGROV-1, 48 h
[26] = system: UACC-62; assay: Growth inhibition of human UACC62 cells after 48 hrs by sulforhodamine B assay; format: functional; conditions: UACC-62, 48 h
[27] = system: SK-MEL-28; assay: Growth inhibition of human SK-MEL-28 cells after 48 hrs by sulforhodamine B assay; format: functional; conditions: SK-MEL-28, 48 h
[28] = system: SK-MEL-2; assay: Growth inhibition of human SK-MEL-2 cells after 48 hrs by sulforhodamine B assay; format: functional; conditions: SK-MEL-2, 48 h
[29] = system: Malme-3M; assay: Growth inhibition of human MALME-3M cells after 48 hrs by sulforhodamine B assay; format: functional
[30] = system: LOX IMVI; assay: Growth inhibition of human LOXIMVI cells after 48 hrs by sulforhodamine B assay; format: functional
[31] = system: SF-268; assay: Growth inhibition of human SF268 cells after 48 hrs by sulforhodamine B assay; format: functional; conditions: SF-268, 48 h
[32] = system: SF-295; assay: Growth inhibition of human SF295 cells after 48 hrs by sulforhodamine B assay; format: functional, cell-based; conditions: SF-295, 48 h
[33] = system: HOP-62; assay: Growth inhibition of human HOP62 cells assessed as cell growth at 10 uM after 48 hrs by sulforhodamine B assay; format: functional; conditions: HOP-62, 48 h, read-out: Activity
[34] = system: HL-60(TB); assay: Growth inhibition of human HL-60(TB) cells assessed as cell growth at 10 uM after 48 hrs by sulforhodamine B assay; format: functional; conditions: HL-60, 48 h, read-out: Activity
[35] = read-out: LC50 (the source's name)

**Q.** With COc1cc(-c2nn(-c3cccc(NC(=O)c4cccc(C(F)(F)F)c4)c3)cc2-c2ccncc2)ccc1Cl as the compound, how does the growth at 10 µM [1] read?
**A.** 26%

**Q.** What about the growth at 10 µM [2] of the same compound?
**A.** 4.39%

**Q.** And the growth at 10 µM [3]?
**A.** 44.7%

**Q.** What about the GI50 [4] of the same compound?
**A.** 2.24 µM

**Q.** And the TGI [4]?
**A.** 17.6 µM

**Q.** What about the CC50 [4, 35] of the same compound?
**A.** > 50 µM

**Q.** And the GI50 [5]?
**A.** 1.56 µM

**Q.** What about the LC50 [5] of the same compound?
**A.** > 50 µM

**Q.** And the TGI [5]?
**A.** 32.5 µM

**Q.** And the GI50 [6]?
**A.** 1.66 µM

**Q.** And the TGI [6]?
**A.** 27 µM

**Q.** What about the CC50 [6, 35] of the same compound?
**A.** > 50 µM

**Q.** And the TGI [7]?
**A.** > 50 µM

**Q.** And the CC50 [7, 35]?
**A.** > 50 µM

**Q.** What about the GI50 [8] of the same compound?
**A.** 2.01 µM

**Q.** And the TGI [8]?
**A.** > 50 µM

**Q.** What about the CC50 [8, 35] of the same compound?
**A.** > 50 µM

**Q.** What about the GI50 [9] of the same compound?
**A.** 1.4 µM

**Q.** And the TGI [9]?
**A.** > 50 µM

**Q.** What about the CC50 [9, 35] of the same compound?
**A.** > 50 µM

**Q.** What about the growth at 10 µM [10] of the same compound?
**A.** 7.18%

**Q.** What about the growth at 10 µM [11] of the same compound?
**A.** 2.75%

**Q.** What about the growth at 10 µM [12] of the same compound?
**A.** -39.6%

**Q.** And the growth at 10 µM [13]?
**A.** 11.4%

**Q.** And the growth at 10 µM [14]?
**A.** 13.1%

**Q.** And the growth at 10 µM [15]?
**A.** 30.5%

**Q.** What about the growth at 10 µM [16] of the same compound?
**A.** 7.11%

**Q.** And the growth at 10 µM [17]?
**A.** -42.3%

**Q.** What about the growth at 10 µM [18] of the same compound?
**A.** 24.8%

**Q.** And the growth at 10 µM [19]?
**A.** 58.1%

**Q.** What about the growth at 10 µM [20] of the same compound?
**A.** -5.59%

**Q.** What about the GI50 [21] of the same compound?
**A.** 1.43 µM

**Q.** What about the LC50 [21] of the same compound?
**A.** > 50 µM

**Q.** And the TGI [21]?
**A.** > 50 µM

**Q.** And the GI50 [22]?
**A.** 1.24 µM

**Q.** And the LC50 [22]?
**A.** > 50 µM

**Q.** What about the TGI [22] of the same compound?
**A.** 9.96 µM

**Q.** And the GI50 [23]?
**A.** 0.968 µM

**Q.** What about the TGI [23] of the same compound?
**A.** > 50 µM

**Q.** And the CC50 [23, 35]?
**A.** > 50 µM

**Q.** And the GI50 [24]?
**A.** 4.01 µM

**Q.** What about the LC50 (concentration killing 50% of cells) [24] of the same compound?
**A.** > 50 µM

**Q.** What about the TGI [24] of the same compound?
**A.** > 50 µM

**Q.** What about the GI50 [25] of the same compound?
**A.** 1.83 µM

**Q.** What about the LC50 (concentration killing 50% of cells) [25] of the same compound?
**A.** > 50 µM

**Q.** What about the TGI [25] of the same compound?
**A.** > 50 µM

**Q.** And the GI50 [26]?
**A.** 1.94 µM

**Q.** What about the LC50 (50% lethal concentration) [26] of the same compound?
**A.** > 50 µM

**Q.** And the TGI [26]?
**A.** > 50 µM

**Q.** What about the GI50 [27] of the same compound?
**A.** 2.49 µM

**Q.** And the LC50 [27]?
**A.** > 50 µM

**Q.** And the TGI [27]?
**A.** > 50 µM

**Q.** And the GI50 [28]?
**A.** 1.56 µM

**Q.** What about the LC50 (50% lethal concentration) [28] of the same compound?
**A.** > 50 µM

**Q.** And the TGI [28]?
**A.** > 50 µM

**Q.** What about the GI50 [29] of the same compound?
**A.** 1.99 µM

**Q.** What about the LC50 (concentration killing 50% of starting cells) [29] of the same compound?
**A.** > 50 µM

**Q.** And the TGI [29]?
**A.** > 50 µM

**Q.** And the GI50 [30]?
**A.** 1.39 µM

**Q.** And the LC50 [30]?
**A.** > 50 µM

**Q.** And the TGI [30]?
**A.** > 50 µM

**Q.** What about the GI50 [31] of the same compound?
**A.** 2.13 µM

**Q.** And the TGI [31]?
**A.** > 50 µM

**Q.** What about the CC50 [31, 35] of the same compound?
**A.** > 50 µM

**Q.** And the GI50 [32]?
**A.** 1.02 µM

**Q.** What about the IC50 [32] of the same compound?
**A.** 1.02 µM

**Q.** And the TGI [32]?
**A.** 3 µM

**Q.** What about the CC50 [32, 35] of the same compound?
**A.** > 50 µM

**Q.** And the growth at 10 µM [33]?
**A.** 22.9%

**Q.** What about the growth at 10 µM [34] of the same compound?
**A.** 1.93%

Source: ChEMBL document CHEMBL2440076, “New triarylpyrazoles as broad-spectrum anticancer agents: design, synthesis, and biological evaluation” (Eur J Med Chem, 2013)
